# Data as given in patent US20180072675A1, “ANTIMICROBIAL PYRIDINOHYDRAZIDE AND HYDRAZOMETHYLPYRIDINE-BASED AGENTS” (Board of Supervisors of Louisiana State University and …, priority 2015, published 2018).
# Key:
# [1] = test system: C. albicans clinical isolate 1 (TW1); assay: MIC80 fungal growth inhibition, clinical isolate TW1; type: cell-based, Candida albicans; conditions: Azole-susceptible, >80% growth inhibition, visual scoring; for MIC80: Candida albicans, read-out: MIC80 TW1
# Protocol: (§1) The antifungal activity of the pyridinohydrazide and hydrazomethylpyridine derivatives described in the s were evaluated in vitro using Candida albicans (ATCC Accession No. 10231) and Candida glabrata (ATCC Accession No. 48435). In addition, the compounds were evaluated for activity against two previously-described clinical isolates of C. albicans known to have developed azole-resistance. These isolates were obtained over a two year period from a single AIDS patient and the development of the azole-resistance mechanisms have been extensively characterized (White T C. Antimicrob. Agents Chemother. (1997) 41: 1482-1487). MIC assays were performed on the clinical isolates 1 and 17 (annotated TW1 and TW17, respectively), where isolate 1 was used as an azole-susceptible control and isolate 17 was considered azole-resistant. All assays were done in accordance with NCCLS reference documents (Clinical Laboratory and Standards Institute. Reference method for Broth Dilution Antifungal Susceptibility Testing of Yeasts: Approved Standard. M27-A3 2010; 28). The results of these screenings are summarized in Tables 1-9 (Examples 20-27) as the minimum concentrations that inhibited more than 80% of fungal growth (MIC80) as compared to positive controls containing 1% DMSO. Assays were performed in HEPES-buffered RPMI-1640 media. All MIC screens used a visual scoring method as opposed to spectroscopic analysis, due to the altered absorbance spectra of many of the compounds.
# [2] = test system: Candida albicans (ATCC Accession No. 10231); assay: MIC80 fungal growth inhibition, C. albicans ATCC 10231; type: cell-based; conditions: Azole-susceptible, >80% growth inhibition, visual scoring; for MIC80: Candida albicans, ATCC10231, read-out: MIC80 C. albicans ATCC No. 10231
# Protocol: as §1
# [3] = test system: Candida glabrata (ATCC Accession No. 48435); assay: MIC80 fungal growth inhibition, C. glabrata ATCC 48435; type: cell-based; conditions: for MIC80: Nakaseomyces glabratus, ATCC48435, read-out: MIC80 C. glabrata ATCC No. 48435; for MIC80 / MIC80 C. glabrata ATCC No. 48435: Azole-resistant, >80% growth inhibition, visual scoring
# Protocol: as §1
# [4] = test system: C. albicans clinical isolate 17 (TW17); assay: MIC80 fungal growth inhibition, clinical isolate TW17; type: cell-based, Candida albicans; conditions: Azole-resistant, >80% growth inhibition, visual scoring; for MIC80: Candida albicans, read-out: MIC80 TW17
# Protocol: as §1
MIC80 [1],MIC80 [2],MIC80 [3],MIC80 [4],MIC80 C. glabrata ATCC No. 48435 [3],MIC80 TW1 [1],MIC80 C. albicans ATCC No. 10231 [2],MIC80 TW17 [4],Structure (SMILES),potency against Candida glabrata (in words) [3]
62 µg/mL,16 µg/mL,8 µg/mL,,,,,,"O=C(N/N=C/c1ccccc1O)c1ccccn1 [AR1, (E)-N′-(2-hydroxybenzylidene)picolinohydrazide]",
8 µg/mL,4 µg/mL,1 µg/mL,31 µg/mL,,,,,"COc1ccc(O)c(/C=N/NC(=O)c2ccccn2)c1 [AR3, (E)-N′-(2-Hydroxy-5-methoxybenzylidene)picolinohydrazide]",
,,,,0.5 µg/mL,,,,O=C(NN=Cc1cc(Br)ccc1O)c1cccnc1O [AR22],one of the most potent compounds
,,,,64 µg/mL,16 µg/mL,16 µg/mL,125 µg/mL,O=C(NN=Cc1cc(Br)ccc1O)c1ccncc1 [AR17],
,,,,62 µg/mL,31 µg/mL,62 µg/mL,62 µg/mL,O=C(NN=Cc1ccccn1)c1ccccc1 [AR31],
,,,,16 µg/mL,31 µg/mL,31 µg/mL,31 µg/mL,O=C(NN=Cc1ccccc1O)c1ccc[n+]([O-])c1 [AR23],
,,2 µg/mL,,,,,,Cc1ccc(O)c(/C=N/NC(=O)c2cccnc2O)c1 [AR20],
,,,,31 µg/mL,16 µg/mL,4 µg/mL,31 µg/mL,Cc1ccc(O)c(C=NNC(=O)c2ccncc2)c1 [AR14],
,,,,16 µg/mL,16 µg/mL,31 µg/mL,125 µg/mL,O=C(NN=Cc1cc(Cl)ccc1O)c1ccncc1 [AR16],
,,,,125 µg/mL,62 µg/mL,125 µg/mL,62 µg/mL,O=C(NN=Cc1ccccn1)c1cccnc1 [AR35],
31 µg/mL,16 µg/mL,4 µg/mL,31 µg/mL,,,,,O=C(N/N=C/c1cc(Cl)ccc1O)c1ccc[n+]([O-])c1 [AR26],
,,,,31 µg/mL,16 µg/mL,16 µg/mL,16 µg/mL,Cc1ccc(O)c(C=NNC(=O)c2ccc[n+]([O-])c2)c1 [AR24],
4 µg/mL,4 µg/mL,16 µg/mL,31 µg/mL,,,,,O=C(N/N=C/c1ccccc1O)c1cccnc1 [AR7],
16 µg/mL,4 µg/mL,4 µg/mL,16 µg/mL,,,,,COc1ccc(O)c(/C=N/NC(=O)c2ccncc2)c1 [AR15],
,,,,125 µg/mL,62 µg/mL,125 µg/mL,125 µg/mL,O=C(NN=Cc1ccccn1)c1ccncc1 [AR36],
,,,,16 µg/mL,8 µg/mL,4 µg/mL,16 µg/mL,O=C(NN=Cc1cc(Br)ccc1O)c1cccnc1 [AR11],
,,,,125 µg/mL,62 µg/mL,125 µg/mL,125 µg/mL,O=C(NN=Cc1ccccn1)c1ccc[n+]([O-])c1 [AR38],
62 µg/mL,16 µg/mL,4 µg/mL,31 µg/mL,,,,,COc1ccc(O)c(/C=N/NC(=O)c2ccc[n+]([O-])c2)c1 [AR25],
,,,,16 µg/mL,4 µg/mL,8 µg/mL,31 µg/mL,O=C(NN=Cc1ccccc1O)c1ccncc1 [AR13],
,,,,4 µg/mL,16 µg/mL,62 µg/mL,4 µg/mL,COc1ccc(O)c(/C=N/NC(=O)c2cccnc2)c1 [AR9],
8 µg/mL,4 µg/mL,8 µg/mL,62 µg/mL,,,,,O=C(N/N=C/c1cc(Cl)ccc1O)c1cccnc1 [AR10],
,,,,4 µg/mL,31 µg/mL,31 µg/mL,62 µg/mL,O=C(NN=Cc1ccccn1)c1ccccc1O [AR32],
